Like-named read-outs stand apart in the source and are kept apart here.

The text below walks through data of patent US6608086B2, “Dihydropyridines and new uses thereof” (Synaptic Pharmaceutical Corporation, priority 1993, dated 2003).

Experiment [1] deals with T1, α1B Human Adrenergic Receptor (Homo sapiens, UniProt P35368).
T1 construct: The entire coding region of α1B (1563 bp); expressed in transfected cells
T1 sequence (P35368 1-520): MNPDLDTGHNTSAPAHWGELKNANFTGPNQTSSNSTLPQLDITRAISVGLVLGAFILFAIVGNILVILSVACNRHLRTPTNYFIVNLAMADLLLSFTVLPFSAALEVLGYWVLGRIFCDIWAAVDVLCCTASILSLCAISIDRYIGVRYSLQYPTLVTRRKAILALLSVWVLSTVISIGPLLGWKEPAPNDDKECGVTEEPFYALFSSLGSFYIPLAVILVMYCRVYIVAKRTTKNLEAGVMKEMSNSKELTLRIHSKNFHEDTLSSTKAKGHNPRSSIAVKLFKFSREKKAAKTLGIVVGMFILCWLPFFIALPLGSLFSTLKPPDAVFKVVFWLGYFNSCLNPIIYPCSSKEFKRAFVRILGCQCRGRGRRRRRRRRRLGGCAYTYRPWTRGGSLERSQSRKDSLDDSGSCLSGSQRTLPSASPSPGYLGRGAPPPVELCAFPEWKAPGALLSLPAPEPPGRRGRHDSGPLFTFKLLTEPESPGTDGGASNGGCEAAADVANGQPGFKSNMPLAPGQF
Put plainly: Radioligand binding, [3H]prazosin, cloned human α1B adrenergic receptor. The settings on record: for Ki: LM(tk-) cell membranes. A digest of the protocol:
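[3H]prazosin (0.5 nM) binding was run for 20 min at 37° C in pH 7.5 Tris/MgCl2/ascorbate buffer on membranes of LM(tk−) cells stably expressing the cloned receptor. Filtration through GF/B ended the reaction; 10 μM phentolamine gave nonspecific binding.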

In experiment [2] the target is T2, α1C Human Adrenergic Receptor (Homo sapiens, UniProt P35348).
T2 construct: The entire coding region of α1C (1401 bp); expressed in transfected cells
T2 sequence (P35348 1-466): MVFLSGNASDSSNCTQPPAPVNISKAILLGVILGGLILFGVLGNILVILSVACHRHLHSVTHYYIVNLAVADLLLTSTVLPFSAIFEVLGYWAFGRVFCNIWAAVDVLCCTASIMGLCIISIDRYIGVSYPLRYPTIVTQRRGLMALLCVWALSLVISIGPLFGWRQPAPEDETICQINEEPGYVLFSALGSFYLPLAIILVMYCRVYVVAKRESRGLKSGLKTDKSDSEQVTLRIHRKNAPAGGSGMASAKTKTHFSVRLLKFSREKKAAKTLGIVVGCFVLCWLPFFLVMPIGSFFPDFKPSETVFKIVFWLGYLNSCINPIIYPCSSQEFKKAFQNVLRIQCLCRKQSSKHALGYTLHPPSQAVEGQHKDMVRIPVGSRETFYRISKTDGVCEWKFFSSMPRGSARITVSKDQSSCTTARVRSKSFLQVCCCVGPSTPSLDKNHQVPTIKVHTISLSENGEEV
Kind of experiment: Radioligand binding, [3H]prazosin, cloned human α1C adrenergic receptor. The following applies: for Ki: LM(tk-) cell membranes. In outline: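 Read-out is filter-retained [3H]prazosin (0.5 nM) bound to membranes of LM(tk−) cells stably carrying the human α1C receptor. Incubation ran 20 min at 37° C. at pH 7.5, with 10 μM phentolamine marking nonspecific binding.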

In a further experiment the target is T3, α2B receptor (Homo sapiens, UniProt P18089).
T3 construct: host or cells: LM(tk-) cells, line L-NGC-α2B
T3 sequence (P18089 1-450): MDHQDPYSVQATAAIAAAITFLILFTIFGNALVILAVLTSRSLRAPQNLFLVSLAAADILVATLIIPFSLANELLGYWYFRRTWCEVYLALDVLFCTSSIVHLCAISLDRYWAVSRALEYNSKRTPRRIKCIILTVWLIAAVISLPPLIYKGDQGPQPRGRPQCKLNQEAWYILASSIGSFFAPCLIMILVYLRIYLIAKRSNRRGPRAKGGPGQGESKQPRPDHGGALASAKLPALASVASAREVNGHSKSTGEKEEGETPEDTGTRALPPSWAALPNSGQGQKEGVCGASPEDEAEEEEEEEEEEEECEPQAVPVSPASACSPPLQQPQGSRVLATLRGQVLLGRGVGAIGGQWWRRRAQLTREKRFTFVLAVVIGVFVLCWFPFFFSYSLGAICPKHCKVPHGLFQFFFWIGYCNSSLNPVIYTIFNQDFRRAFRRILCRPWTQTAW
Put plainly: Competition binding, [3H]rauwolscine, human α2B receptor. In outline:
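Cell lysates from stably transfected LM(tk−) lines are resuspended in 25 mM glycylglycine (pH 7.6 at room temperature), incubated to equilibrium with 0.5 nM [3H]rauwolscine plus competitor, then filtered through GF/B filters; 10 μM phentolamine defines nonspecific binding.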

Where [3] appears, read: cloned human receptor, mean, read-out: PKi alpha-1 1b (converted).
Setting [4] is: cloned human receptor, mean, read-out: PKi alpha-1 1c (converted).
Setting [5] is: cloned human receptor in LM(tk-) cell membranes, SEM and n in lines below.
Setting [6] is: [3H]rauwolscine, LM(tk-) cell line L-NGC-α2B, SEM and n in lines below.

In the case of `CCOC(=O)C1(c2ccccc2)CCN(CCCNC(=O)C2=C(COCC(F)(F)F)NC(C)=C(C(N)=O)C2c2ccc([N+](=O)[O-])cc2)CC1` (stereo not drawn) [Example 243, 5-Carboxamido-3-(N-(3-(4-ethoxycarbonyl-4-phenylpiperidin-1yl)propyl))carboxamido-2-((2,2,2-trifluoroethyl)oxy)methyl-1,4dihydro-6-methyl-4-(4-nitro)phenylpyridine], the Ki in experiment [1] (cloned human α1B receptor, read-out: PKi alpha-1 1b (converted)) is 759 nM; in experiment [2] (cloned human α1C receptor, read-out: PKi alpha-1 1c (converted)), 5.75 nM; on α2B receptor ([3H]rauwolscine, human α2B receptor, LM(tk-) cells, read-out: PKi alpha-2 2b (converted)) it was 977 nM.

Consider `CCC1=C(C(N)=O)C(c2ccc([N+](=O)[O-])cc2)C(C(=O)NCCCN2CCC(O)(c3ccccc3)CC2)=CN1CC.Cl.O` (stereo not drawn) [Example 101, 5-Carboxamido-1,6-diethyl-1,4-dihydro-3-{N-[3-(4-hydroxy-4-phenylpiperidin-1-yl)propyl]}carboxamido-4-(4-nitrophenyl)pyridine hydrochloride hydrate], for which the “pKi alpha-1 1b” value in experiment [1] (cloned human α1B receptor, LM(tk−) cell membranes) is listed as 6.22. Also, the “pKi alpha-1 1c” value in experiment [2] (cloned human α1C receptor, LM(tk−) cell membranes) is 8.54. The “pKi alpha-2 2b” value at α2B receptor ([3H]rauwolscine, human α2B receptor, LM(tk−) cells) is 6.18.

On to `CC(=O)C1=C(C)NC(COCCN)=C(C(=O)NCCCN2CCC(c3ccccc3)(c3ccccc3)CC2)C1c1ccc([N+](=O)[O-])cc1` (stereo not drawn) [Example 237, 5-Acetyl-2-((2-aminoethyl)oxy)methyl-1,4-dihydro-6-methyl-4-(4-nitro)phenyl 3-(N-(3-(4,4-diphenylpiperidin-1-yl)propyl)) carboxamidopyridine], for which the Ki in experiment [1] (PKi alpha-1 1b, cloned human receptor, mean) is 200 nM; in experiment [2] (PKi alpha-1 1c, cloned human receptor, mean), 2.63 nM; at α2B receptor (PKi alpha-2 2b, [3H]rauwolscine, human receptor, LM(tk-) cell lysates, mean), 851 nM.

Take `CCNC(=O)C1=C(CC)NC(CC)=C(C(=O)NCCCN2CCC(C(=O)OC)(c3ccccc3)CC2)C1c1ccc([N+](=O)[O-])cc1` (stereo not drawn) [Example 180, 2,6-Diethyl-1,4-dihydro-5-(N-ethyl)carboxamido-3-{N-[3-(4-methoxycarbonyl-4-phenylpiperidin-1-yl)propyl]}carboxamido-4-(4-nitrophenyl)pyridine]: the Ki was 851 nM in experiment [1] (setting [3]), 3.63 nM in experiment [2] (setting [4]) and 3630 nM at α2B receptor (PKi alpha-2 2b).

As for `CC1=C(C(=O)NCCCN2CCC(c3ccccc3)(c3ccccc3)CC2)C(c2ccc([N+](=O)[O-])cc2)C(C(=O)N(C)C)=C(C)N1` (stereo not drawn) [Example 39, 1,4-Dihydro-2,6-dimethyl-3-(N,N-dimethyl) carboxamido-4-(4-nitrophenyl)-5-{N-[3-(4,4-diphenylpiperidin-1-yl)propyl]}carboxamidopyridine], the “pKi alpha-1 1b” value in experiment [1] (setting [5]) was 5.93. The “pKi alpha-1 1c” value in experiment [2] (setting [5]) is given as 7.23. Moreover, the “pKi alpha-2 2b” value on α2B receptor (setting [6]) worked out at 5.74.

As to `CCC1=C(C(=O)NCCCN2CCc3cc(OC)c(OC)cc3C2)C(c2ccc([N+](=O)[O-])cc2)C(C(N)=O)=C(C)N1.Cl.O` (stereo not drawn) [Example 76, 5-Carboxamido-2-ethyl-1,4-dihydro-3-(N-(3-(1,2,3,4-tetrahydro-6,7-dimethoxyisoquinolin-2-yl)propyl)) carboxamido-6-methyl-4-(4-nitro)phenylpyridine hydrochloride hydrate], in experiment [1] (setting [5]), the “pKi alpha-1 1b” value is listed as 5.88. Further, in experiment [2] (setting [5]), the “pKi alpha-1 1c” value came out at 6.63. Also, at α2B receptor (setting [6]), the “pKi alpha-2 2b” value is recorded as 5.64.

Regarding `CCOC(=O)C1(c2ccccc2)CCN(CCCNC(=O)C2=C(COCCN)NC(CC)=C(C(=O)OC)C2c2ccc([N+](=O)[O-])cc2)CC1` (stereo not drawn) [Example 197, 2-[(2-Aminoethoxy)methyl]-3-{N-[3-(4-ethoxycarbonyl-4-phenylpiperidin-1-yl)propyl]}carboxamido-1,4-dihydro-6-ethyl-5-methoxycarbonyl-4-(4-nitrophenyl) pyridine], the Ki is 148 nM in experiment [1] (setting [3]), 0.55 nM in experiment [2] (setting [4]) and 2340 nM at α2B receptor (PKi alpha-2 2b).
